Assay results: PMC3601546 (Bioorganic & medicinal chemistry letters, 2012)

These molecules were tested against T1, human NPBWR1 (Homo sapiens, UniProt P48145) (assay: NPBWR1 antagonist calcium release). Conditions: not given.
T1 sequence (P48145 1-328): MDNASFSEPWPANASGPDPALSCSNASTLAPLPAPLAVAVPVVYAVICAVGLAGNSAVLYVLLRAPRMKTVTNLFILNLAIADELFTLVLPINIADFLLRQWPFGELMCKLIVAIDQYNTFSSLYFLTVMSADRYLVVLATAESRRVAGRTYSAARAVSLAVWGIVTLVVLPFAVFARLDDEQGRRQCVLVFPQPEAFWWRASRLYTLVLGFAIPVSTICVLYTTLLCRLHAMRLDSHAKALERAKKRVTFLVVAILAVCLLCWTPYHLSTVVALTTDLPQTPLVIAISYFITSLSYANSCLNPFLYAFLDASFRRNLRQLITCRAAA
Format: cell-based

How did the “NPBWR1 antagonist activity in words” value turn out when `COc1ccc(Oc2c(NC(C)=O)cnn(-c3ccc(C(C)C)cc3)c2=O)cc1` [9q] was run?
The value was “Total loss of potency”.

For `COc1ccc(Oc2ccnn(-c3ccc(C(C)C)cc3)c2=O)cc1` [9o], which “NPBWR1 antagonist activity in words” value is on record?
The value was “Total loss of potency”.

How did the “NPBWR1 antagonist activity in words” value turn out when `COc1ccc(Oc2c(N)cnn(-c3ccc(C(C)C)cc3)c2=O)cc1` [9p] was run?
The value was “Total loss of potency”.

With `COc1ccc(Oc2c(-c3ccccc3)cnn(-c3ccc(C)cc3)c2=O)cc1` [9d] as the molecule, how does the “NPBWR1 antagonist activity in words” value read?
Its value is “drastic loss in potency”.

Which “NPBWR1 antagonist activity in words” value does the source give for `COc1ccc(Oc2c(C(=O)O)cnn(-c3ccc(C(C)C)cc3)c2=O)cc1` [9m] here?
Its value is “inactive”.

With `COc1ccc(Oc2c(Cl)c(C(=O)O)nn(-c3ccc(C(C)C)cc3)c2=O)cc1` [9t] as the molecule, how does the “NPBWR1 antagonist activity in words” value read?
The value was “Total loss of activity”.

Same assay, conditions: ratio of NPBWR1 IC50 vs 1a

For `Cc1ccc(-n2ncc(Cl)c(Oc3ccc(C(F)(F)F)cc3)c2=O)cc1` [6e], which “fold more potent than the hit 1a” value is on record?
The value was 2- to 3 fold.

How did the “fold more potent than the hit 1a” value turn out when `COc1ccc(Oc2c(Cl)cnn(-c3ccc(C)c(C)c3)c2=O)cc1` [1s] was run?
Its value is “~ fourfold”.

Same assay, conditions: ratio of NPBWR1 IC50 vs 1j

`COC(=O)c1nn(-c2ccc(C(C)C)cc2)c(=O)c(Oc2ccc(OC)cc2)c1Cl` [9u] was tested. Which “fold less potent than 1j” value did it give?
Its value is 13 fold.

How did the “fold less potent than 1j” value turn out when `COc1ccc(Oc2c(CO)cnn(-c3ccc(C(C)C)cc3)c2=O)cc1` [9k] was run?
The value was ~ 21 fold.

Which “fold less potent than 1j” value does the source give for `COc1ccc(Oc2c(C)cnn(-c3ccc(C(C)C)cc3)c2=O)cc1` [9g] here?
Its value is ~ 28 fold.

For `COc1ccc(Oc2c(C=O)cnn(-c3ccc(C(C)C)cc3)c2=O)cc1` [9j], which “fold less potent than 1j” value is on record?
The value was ~ 23 fold.

For `C=Cc1cnn(-c2ccc(C(C)C)cc2)c(=O)c1Oc1ccc(OC)cc1` [9h], which “fold less potent than 1j” value is on record?
The value was ~9 fold.

`CCOC(=O)c1nn(-c2ccc(C(C)C)cc2)c(=O)c(Oc2ccc(OC)cc2)c1Cl` [9s] was tested. Which “fold less potent than 1j” value did it give?
Its value is 13 fold.

With `CC(C)c1ccc(-n2ncc(Cl)c(Oc3ccc(C(=O)CN)cc3)c2=O)cc1` [6l] as the molecule, how does the “fold less potent than 1j” value read?
Its value is “eightfold”.

For `COc1ccc(Oc2c(C#N)cnn(-c3ccc(C(C)C)cc3)c2=O)cc1` [9l], which “fold less potent than 1j” value is on record?
Its value is ~ 15 fold.

`CC(C)c1ccc(-n2ncc(Cl)c(Oc3ccc(O)cc3)c2=O)cc1` [6i] was tested. Which “fold less potent than 1j” value did it give?
The value was ~ 18 fold.

How did the “fold less potent than 1j” value turn out when `CC(C)c1ccc(-n2ncc(Cl)c(Oc3ccc(OC(F)(F)F)cc3)c2=O)cc1` [6j] was run?
The value was ~45 fold.

For `COC(=O)c1cnn(-c2ccc(C(C)C)cc2)c(=O)c1Oc1ccc(OC)cc1` [9n], which “fold less potent than 1j” value is on record?
Its value is 10 fold.

Same assay, conditions: ratio of NPBWR1 IC50 vs 1t

For `COc1ccc(Oc2c(Cl)c(OC)nn(-c3cccc(C)c3)c2=O)cc1` [9r], which “fold decrease in potency compared to 1t” value is on record?
The value was ~ 3.5 fold.

Same assay, conditions: ratio of NPBWR1 IC50 vs 9a

`COc1ccc(Oc2c(C3CC3)cnn(-c3ccc(C)cc3)c2=O)cc1` [9f] was tested. Which “fold loss in potency compared to 9a” value did it give?
Its value is “~ eightfold”.

These molecules were tested on Ricerca panel of 35 therapeutically relevant off-target proteins including GPCRs, enzymes and ion channels (assay: Selectivity profile against Ricerca panel of 35 off-target proteins). Conditions: at 10 μM.

`COc1ccc(Oc2c(Cl)cnn(-c3cc(C)cc(C)c3)c2=O)cc1` [1z, 5-chloro-2-(3,5-dimethylphenyl)-4-(4-methoxyphenoxy)pyridazin-3(2H)-one] was tested. Which “stimulation/inhibition against the pool of tested off-targets” value did it give?
Its value is < 50%.

The molecules below were run on HT29 cells (assay: Viability assay on HT29 cells). Conditions: final tested concentration of 20 μM.
Format: cell-based

`COc1ccc(Oc2c(Cl)cnn(-c3cc(C)cc(C)c3)c2=O)cc1` [1z, 5-chloro-2-(3,5-dimethylphenyl)-4-(4-methoxyphenoxy)pyridazin-3(2H)-one] was tested. Which “cytotoxicity in viability assay” value did it give?
The value was “non cytotoxic”.
